In PubChem BioAssay (NCI):
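Five compound concentrations were applied to cells in 96-well plates for 48 hours; endpoints were derived by simple linear interpolation of the resulting dose-response curve. TGI: total growth inhibition.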 The source made the active and inactive calls. No stated cut-off is given here; in the data, active means GI50 below about 0.43 µM; inactive means the rest.

How the values were obtained:
Test in all cases: NCI-60 cell line screen, 48 h
OVCAR-8 ovarian = tested on: OVCAR-8 ovarian
SNB-19 CNS = tested on: SNB-19 CNS
OVCAR-3 ovarian = tested on: OVCAR-3 ovarian
NCI-H23 lung = tested on: NCI-H23 lung
ACHN renal = tested on: ACHN renal
SF-539 CNS = tested on: SF-539 CNS
CAKI-1 renal = tested on: CAKI-1 renal
HL-60(TB) leukemia = tested on: HL-60(TB) leukemia
MALME-3M melanoma = tested on: MALME-3M melanoma
SK-MEL-28 melanoma = tested on: SK-MEL-28 melanoma
UO-31 renal = tested on: UO-31 renal
HCT-116 colon = tested on: HCT-116 colon
LOX IMVI melanoma = tested on: LOX IMVI melanoma
A498 renal = tested on: A498 renal
MOLT-4 leukemia = tested on: MOLT-4 leukemia
SR leukemia = tested on: SR leukemia
OVCAR-5 ovarian = tested on: OVCAR-5 ovarian
M14 melanoma = tested on: M14 melanoma
SF-295 CNS = tested on: SF-295 CNS
A549 NSCLC = tested on: A549 NSCLC
MDA-MB-231 breast = tested on: MDA-MB-231 breast
EKVX NSCLC = tested on: EKVX NSCLC
HOP-62 NSCLC = tested on: HOP-62 NSCLC
UACC-257 melanoma = tested on: UACC-257 melanoma
T-47D breast = tested on: T-47D breast
HCC-2998 colon = tested on: HCC-2998 colon
HT29 colon = tested on: HT29 colon
MDA-N = tested on: MDA-N
HCT-15 colon = tested on: HCT-15 colon
SK-MEL-2 melanoma = tested on: SK-MEL-2 melanoma
HS 578T breast = tested on: HS 578T breast
SW-620 colon = tested on: SW-620 colon
SF-268 CNS = tested on: SF-268 CNS
KM12 colon = tested on: KM12 colon
MCF7 breast = tested on: MCF7 breast
SK-OV-3 ovarian = tested on: SK-OV-3 ovarian
U251 CNS = tested on: U251 CNS
NCI/ADR-RES ovarian = tested on: NCI/ADR-RES ovarian
HOP-92 NSCLC = tested on: HOP-92 NSCLC
COLO 205 colon = tested on: COLO 205 colon
PC-3 prostate = tested on: PC-3 prostate
SNB-75 CNS = tested on: SNB-75 CNS
TK-10 renal = tested on: TK-10 renal
786-0 renal = tested on: 786-0 renal
OVCAR-4 ovarian = tested on: OVCAR-4 ovarian
SN12C renal = tested on: SN12C renal
IGROV1 ovarian = tested on: IGROV1 ovarian
SK-MEL-5 melanoma = tested on: SK-MEL-5 melanoma
DU-145 prostate = tested on: DU-145 prostate
NCI-H460 lung = tested on: NCI-H460 lung
K-562 leukemia = tested on: K-562 leukemia
UACC-62 melanoma = tested on: UACC-62 melanoma
CCRF-CEM leukemia = tested on: CCRF-CEM leukemia
MDA-MB-435 = tested on: MDA-MB-435
RXF 393 renal = tested on: RXF 393 renal
BT-549 breast = tested on: BT-549 breast
RPMI-8226 leukemia = tested on: RPMI-8226 leukemia
NCI-H226 lung = tested on: NCI-H226 lung
NCI-H522 lung = tested on: NCI-H522 lung

Measured: TGI

CC1CN=C(N(C)C(=O)Nc2ccc(Cl)cc2)S1 (stereo not given)
95.6 µM: ACHN renal
92.2 µM: SR leukemia
30.8 µM: SF-539 CNS
44.1 µM: MOLT-4 leukemia
37.5 µM: NCI/ADR-RES ovarian
65.6 µM: T-47D breast
80.2 µM: COLO 205 colon
35.5 µM: UACC-257 melanoma
66.4 µM: OVCAR-5 ovarian
61 µM: UO-31 renal
41.8 µM: SK-MEL-28 melanoma
68.8 µM: HOP-92 NSCLC
37.3 µM: SK-MEL-2 melanoma
22 µM: SK-MEL-5 melanoma
not listed: UACC-62 melanoma | CCRF-CEM leukemia | MDA-MB-435 | RXF 393 renal | BT-549 breast | RPMI-8226 leukemia | NCI-H226 lung | NCI-H522 lung
> 100 µM: all other assays above

[N-]=[N+]=NC1=CC(=O)c2cccc3cccc1c23
31 µM: SNB-75 CNS
71 µM: U251 CNS
34.5 µM: RXF 393 renal
88.2 µM: TK-10 renal
82.8 µM: M14 melanoma
27.8 µM: SK-MEL-5 melanoma
66.7 µM: HOP-92 NSCLC
51.8 µM: IGROV1 ovarian
72.2 µM: UACC-257 melanoma
63 µM: BT-549 breast
48.1 µM: HOP-62 NSCLC
88 µM: SF-539 CNS
69.8 µM: HS 578T breast
38.9 µM: A498 renal
82 µM: NCI-H23 lung
42.1 µM: UACC-62 melanoma
35.6 µM: SK-OV-3 ovarian
84.3 µM: SF-295 CNS
not listed: OVCAR-8 ovarian | EKVX NSCLC | HCT-15 colon | SK-MEL-2 melanoma | NCI/ADR-RES ovarian | NCI-H226 lung | NCI-H522 lung
> 100 µM: all other assays above

C[C@H](N)C(O)C/C=C\C/C=C\C/C=C\C/C=C\C/C=C\C/C=C\CCCCCCC(O)[C@H](C)N (stereo not given in full)
not listed: A549 NSCLC | NCI/ADR-RES ovarian | HOP-92 NSCLC | IGROV1 ovarian | SK-MEL-5 melanoma
inactive: all other assays above

O=[N+]([O-])c1ccc2nc3n(c2c1)C(c1c(F)cccc1F)SC3 (stereo not given)
> 10 µM: OVCAR-8 ovarian | A549 NSCLC | T-47D breast | RPMI-8226 leukemia | SK-MEL-5 melanoma | K-562 leukemia
not listed: SF-539 CNS | CAKI-1 renal | HL-60(TB) leukemia | UO-31 renal | M14 melanoma | HCC-2998 colon | HCT-15 colon | SK-MEL-2 melanoma | SF-268 CNS | HOP-92 NSCLC | COLO 205 colon | SNB-75 CNS | OVCAR-4 ovarian | UACC-62 melanoma | MDA-MB-435 | RXF 393 renal | BT-549 breast | NCI-H522 lung
> 100 µM: all other assays above

CCP(=S)(CC)CCl
not listed: SF-539 CNS | MALME-3M melanoma | A498 renal | MOLT-4 leukemia | EKVX NSCLC | SF-268 CNS | KM12 colon | 786-0 renal | UACC-62 melanoma | MDA-MB-435 | RXF 393 renal | BT-549 breast
> 100 µM: all other assays above
